What is called DC50 is the concentration giving 50% degradation.

Structures are written as SMILES.

This assay has as its target T1, TYK2 (Homo sapiens, UniProt P29597).
T1 construct: Degradation of TYK2 in cells was quantitatively measured using Meso Scale Discovery (MSD) technology; endogenous in cells; host or cells: OCI-LY10
Put plainly: TYK2 MSD degradation in OCI-LY10 cells. Type of assay: cell-based. As to conditions: TYK2 degradation in OCI-LY10 cells, 4 to 24 hours incubation; for DC50: read-out: TYK2 MSD OCI-LY10 Rel-DC50. In outline: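 Cellular TYK2 levels were measured by Meso Scale Discovery sandwich detection in RIPA lysates of OCI-LY10 cells exposed 4 to 24 hours at 37° C to nine 1:3 compound doses starting at 1 to 10 μM final; dose-response fitted by four-parameter regression.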

T1 sequence (P29597 whole entry): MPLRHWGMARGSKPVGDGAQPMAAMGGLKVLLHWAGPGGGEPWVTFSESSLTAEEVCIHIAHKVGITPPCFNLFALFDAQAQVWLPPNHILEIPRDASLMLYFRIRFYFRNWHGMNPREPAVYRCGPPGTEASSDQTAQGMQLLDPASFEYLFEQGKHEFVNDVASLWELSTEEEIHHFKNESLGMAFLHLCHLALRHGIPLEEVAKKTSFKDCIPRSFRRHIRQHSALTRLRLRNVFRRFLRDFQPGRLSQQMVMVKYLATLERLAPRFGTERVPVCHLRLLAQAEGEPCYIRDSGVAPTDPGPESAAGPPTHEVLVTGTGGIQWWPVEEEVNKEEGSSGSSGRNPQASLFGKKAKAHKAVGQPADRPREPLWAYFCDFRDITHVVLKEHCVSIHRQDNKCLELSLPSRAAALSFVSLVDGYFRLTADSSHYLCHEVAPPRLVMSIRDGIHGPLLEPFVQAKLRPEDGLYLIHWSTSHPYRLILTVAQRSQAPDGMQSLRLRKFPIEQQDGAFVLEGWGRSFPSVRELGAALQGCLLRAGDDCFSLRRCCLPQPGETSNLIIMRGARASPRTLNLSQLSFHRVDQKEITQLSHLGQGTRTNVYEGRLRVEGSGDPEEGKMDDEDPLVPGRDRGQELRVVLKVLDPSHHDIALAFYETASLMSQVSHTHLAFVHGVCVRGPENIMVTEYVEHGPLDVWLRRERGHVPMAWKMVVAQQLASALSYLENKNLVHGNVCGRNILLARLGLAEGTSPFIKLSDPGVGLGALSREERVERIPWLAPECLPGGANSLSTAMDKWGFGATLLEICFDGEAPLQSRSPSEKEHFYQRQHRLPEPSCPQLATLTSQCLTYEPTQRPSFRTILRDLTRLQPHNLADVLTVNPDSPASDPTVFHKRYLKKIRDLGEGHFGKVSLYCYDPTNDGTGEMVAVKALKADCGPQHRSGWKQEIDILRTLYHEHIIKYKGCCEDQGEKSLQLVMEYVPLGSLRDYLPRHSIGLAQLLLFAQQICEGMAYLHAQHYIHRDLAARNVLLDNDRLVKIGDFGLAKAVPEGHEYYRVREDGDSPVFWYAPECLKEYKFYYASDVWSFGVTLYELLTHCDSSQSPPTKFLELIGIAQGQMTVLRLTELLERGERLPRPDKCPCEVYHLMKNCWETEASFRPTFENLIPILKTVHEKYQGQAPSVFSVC

In the case of `CNc1cc(N2CCc3c([C@H](C)N4CC[C@H](N5CCC6(CCN(C(=O)c7cc(C)c(Cl)c(N8CCC(=O)NC8=O)c7)CC6)CC5)C(F)(F)C4)cccc32)nn2c(C(=O)N[C@@H]3CC[C@H]3OC)cnc12` [I-1127], the “TYK2 MSD OCI-LY10 Dmax %” value is “A (A (>90%))” and the half-maximal degradation concentration (DC50) was below 1 nM.

As for `CNc1cc(N2CCc3c([C@@H](C)N4CC[C@H](N5CCC6(CCN(C(=O)c7cc(C)c(Cl)c(N8CCC(=O)NC8=O)c7)CC6)CC5)C(F)(F)C4)cccc32)nn2c(C(=O)N[C@@H]3CC[C@H]3OC)cnc12` [I-1128], the “TYK2 MSD OCI-LY10 Dmax %” value is listed as “A (A (>90%))” and the DC50 was below 1 nM.

In the case of `COC1(c2cc(C)cc(-c3cn(CCC4CCN(C5CCN(c6cc(F)c(C7CCC(=O)NC7=O)c(F)c6)CC5)CC4)c4cnc(NC(C)=O)cc34)n2)CCOC1` (stereo not shown) [I-1130], the “TYK2 MSD OCI-LY10 Dmax %” value is recorded as “B (B (90 to >75%))” and the half-maximal degradation concentration (DC50) is below 10 nM.

Consider `CNc1cc(N2CCc3c(-c4ncc(CN5CC6(CCN(C(=O)c7cc(N8CCC(=O)NC8=O)c(C)c(Cl)c7F)CC6(F)F)C5)cc4F)cccc32)nn2c(C(=O)N[C@@H]3CC[C@H]3OC)cnc12` [I-1133], for which the “TYK2 MSD OCI-LY10 Dmax %” value is reported as “A (A (>90%))” and the DC50 is below 1 nM.

Take `CNc1cc(N2CCc3c(-c4ncc(CN5CC6(CCN(C(=O)c7cc(N8CCC(=O)NC8=O)c(OC)cc7F)CC6(F)F)C5)cc4F)cccc32)nn2c(C(=O)N[C@@H]3CC[C@H]3OC)cnc12` [I-1134]: the “TYK2 MSD OCI-LY10 Dmax %” value is recorded as “A (A (>90%))” and the DC50 was below 1 nM.

Regarding `CNc1cc(N2CCc3c(-c4ncc(CN5CC6(CCN(C(=O)c7cc(N8CCC(=O)NC8=O)c(OC)cc7C)CC6(F)F)C5)cc4F)cccc32)nn2c(C(=O)N[C@@H]3CC[C@H]3OC)cnc12` [I-1135], the “TYK2 MSD OCI-LY10 Dmax %” value is recorded as “A (A (>90%))” and the half-maximal degradation concentration (DC50) was below 1 nM.

For `CNc1cc(N2CCc3c(-c4ncc(CN5CC6(CCN(C(=O)c7cc(OC)c(C)c(N8CCC(=O)NC8=O)c7)CC6(F)F)C5)cc4F)cccc32)nn2c(C(=O)N[C@@H]3CC[C@H]3OC)cnc12` [I-1137], the “TYK2 MSD OCI-LY10 Dmax %” value is “A (A (>90%))” and the half-maximal degradation concentration (DC50) is below 1 nM.

In the case of `CNc1cc(N2CCc3c(-c4ncc(CN5CC6(CCN(C(=O)c7cc(C)c(OC)c(N8CCC(=O)NC8=O)c7)CC6(F)F)C5)cc4F)cccc32)nn2c(C(=O)N[C@@H]3CC[C@H]3OC)cnc12` [I-1138], the “TYK2 MSD OCI-LY10 Dmax %” value is listed as “B (B (90 to >75%))” and the 50% degradation concentration (DC50) is below 1 nM.

Regarding `CNc1cc(N2CCc3c(-c4ncc(C(=O)N5CC6(CCN(C(=O)c7cc(C)c(Cl)c(N8CCC(=O)NC8=O)c7)CC6(F)F)C5)cc4F)cccc32)nn2c(C(=O)N[C@@H]3CC[C@H]3OC)cnc12` [I-1139], the “TYK2 MSD OCI-LY10 Dmax %” value is “A (A (>90%))” and the half-maximal degradation concentration (DC50) was below 1 nM.

For `CNc1cc(N2CCc3c(-c4ncc(C(=O)N5CC6(CCN(C(=O)c7cc(C)c(Cl)c(N8CCC(=O)NC8=O)c7)CC6)C5)cc4F)cccc32)nn2c(C(=O)N[C@@H]3CC[C@H]3OC)cnc12` [I-1140], the “TYK2 MSD OCI-LY10 Dmax %” value was “A (A (>90%))” and the DC50 was below 1 nM.

As for `CNc1cc(N2CCc3c(CN4CC[C@@H](N5CCC6(CC5)CN(C(=O)c5cc(Cl)c(C)c(N7CCC(=O)NC7=O)c5)C6)C(F)(F)C4)cccc32)nn2c(C(=O)N[C@@H]3CC[C@H]3OC)cnc12` [I-1141], the “TYK2 MSD OCI-LY10 Dmax %” value is recorded as “A (A (>90%))” and the DC50 is below 1 nM.

Turning to `CNc1cc(N2CCc3c(CN4CC[C@H](N5CCC6(CC5)CN(C(=O)c5cc(Cl)c(C)c(N7CCC(=O)NC7=O)c5)C6)C(F)(F)C4)cccc32)nn2c(C(=O)N[C@@H]3CC[C@H]3OC)cnc12` [I-1142], the “TYK2 MSD OCI-LY10 Dmax %” value is recorded as “A (A (>90%))” and the DC50 is below 1 nM.

On to `CNc1cc(N2CCc3c(-c4ncc([C@H](C)N5CC6(CCN(C(=O)c7cc(C)c(Cl)c(N8CCC(=O)NC8=O)c7)CC6(F)F)C5)cc4F)cccc32)nn2c(C(=O)N[C@@H]3CC[C@H]3OC)cnc12` [I-1143], for which the “TYK2 MSD OCI-LY10 Dmax %” value is given as “A (A (>90%))” and the DC50 was below 1 nM.

Turning to `CNc1cc(N2CCc3c(-c4ncc([C@@H](C)N5CC6(CCN(C(=O)c7cc(C)c(Cl)c(N8CCC(=O)NC8=O)c7)CC6(F)F)C5)cc4F)cccc32)nn2c(C(=O)N[C@@H]3CC[C@H]3OC)cnc12` [I-1144], the “TYK2 MSD OCI-LY10 Dmax %” value is reported as “B (B (90 to >75%))” and the half-maximal degradation concentration (DC50) was below 1 nM.

Take `CNc1cc(N2CCc3c(CN4CC[C@@H](N5CCC6(CCN(C(=O)c7cc(Cl)c(Cl)c(N8CCC(=O)NC8=O)c7)CC6)CC5)C(F)(F)C4)cccc32)nn2c(C(=O)N[C@@H]3CC[C@H]3OC)cnc12` [I-1145]: the “TYK2 MSD OCI-LY10 Dmax %” value is on record as “A (A (>90%))” and the DC50 was below 1 nM.

On to `CNc1cc(N2CCc3c(CN4CC[C@H](N5CCC6(CCN(C(=O)c7cc(Cl)c(Cl)c(N8CCC(=O)NC8=O)c7)CC6)CC5)C(F)(F)C4)cccc32)nn2c(C(=O)N[C@@H]3CC[C@H]3OC)cnc12` [I-1146], for which the “TYK2 MSD OCI-LY10 Dmax %” value is on record as “A (A (>90%))” and the DC50 is below 1 nM.

In the case of `CNc1cc(N2CCc3c(CN4CC[C@@H](N5CCC6(CCN(C(=O)c7cc(N8CCC(=O)NC8=O)c(Cl)cn7)CC6)CC5)C(F)(F)C4)cc(F)cc32)nn2c(C(=O)N[C@@H]3CC[C@H]3OC)cnc12` [I-1147], the “TYK2 MSD OCI-LY10 Dmax %” value is reported as “A (A (>90%))” and the DC50 was below 1 nM.

Regarding `CNc1cc(N2CCc3c(CN4CC[C@H](N5CCC6(CCN(C(=O)c7cc(N8CCC(=O)NC8=O)c(Cl)cn7)CC6)CC5)C(F)(F)C4)cc(F)cc32)nn2c(C(=O)N[C@@H]3CC[C@H]3OC)cnc12` [I-1148], the “TYK2 MSD OCI-LY10 Dmax %” value is reported as “B (B (90 to >75%))” and the half-maximal degradation concentration (DC50) is below 1 nM.

Turning to `CNc1cc(N2CCc3c(-c4ncc(CN5CC6(CCN(C(=O)c7cc(N8CCC(=O)NC8=O)c(Cl)cn7)CC6(F)F)C5)cc4F)cc(F)cc32)nn2c(C(=O)N[C@@H]3CC[C@H]3OC)cnc12` [I-1149], the “TYK2 MSD OCI-LY10 Dmax %” value was “A (A (>90%))” and the half-maximal degradation concentration (DC50) was below 1 nM.

In the case of `CNc1cc(N2CCc3c(-c4ncc(CN5CC6(CCN(C(=O)c7cc(N8CCC(=O)NC8=O)c(Cl)c(C)n7)CC6(F)F)C5)cc4F)cc(F)cc32)nn2c(C(=O)N[C@@H]3C[C@@H]3F)cnc12` [I-1150], the “TYK2 MSD OCI-LY10 Dmax %” value is given as “A (A (>90%))” and the DC50 is below 1 nM.

For the compound `CNc1cc(N2CCc3c(-c4ncc(CN5CC6(CCN(C(=O)c7cc(N8CCC(=O)NC8=O)c(Cl)c(C)n7)CC6(F)F)C5)cc4F)cc(F)cc32)nn2c(C(=O)N[C@@H]3CC[C@H]3OC)cnc12` [I-1151], the “TYK2 MSD OCI-LY10 Dmax %” value was “A (A (>90%))” and the 50% degradation concentration (DC50) is below 1 nM.

Consider `CNc1cc(N2CCc3c(-c4ncc(CN5CC6(CCN(C(=O)c7cc(N8CCC(=O)NC8=O)c(F)cn7)CC6(F)F)C5)cc4F)cc(F)cc32)nn2c(C(=O)N[C@@H]3C[C@@H]3F)cnc12` [I-1153], for which the “TYK2 MSD OCI-LY10 Dmax %” value is listed as “B (B (90 to >75%))” and the DC50 was below 10 nM.

Regarding `CNc1cc(N2CCc3c(-c4ncc(CN5CC6(CCN(C(=O)c7ccc(Cl)c(N8CCC(=O)NC8=O)c7)CC6(F)F)C5)cc4F)cccc32)nn2c(C(=O)N[C@@H]3CC[C@H]3OC)cnc12` [I-1154], the “TYK2 MSD OCI-LY10 Dmax %” value was “A (A (>90%))” and the DC50 is below 1 nM.

In the case of `CNc1cc(N2CCc3c(-c4ncc(CN5CC6(CCN(C(=O)c7cc(N8CCC(=O)NC8=O)c(F)cn7)CC6(F)F)C5)cc4F)cc(F)cc32)nn2c(C(=O)N[C@@H]3CC[C@H]3OC)cnc12` [I-1155], the “TYK2 MSD OCI-LY10 Dmax %” value is reported as “B (B (90 to >75%))” and the half-maximal degradation concentration (DC50) was below 1 nM.

In the case of `CNc1cc(N2CCc3c(CN4CCC(N5CCC6(CC5)CN(C(=O)c5cc(N7CCC(=O)NC7=O)c(Cl)c(C)n5)C6)C(F)(F)C4)cccc32)nn2c(C(=O)N[C@@H]3CC[C@H]3OC)cnc12` (stereo partly shown) [I-1156], the “TYK2 MSD OCI-LY10 Dmax %” value is given as “B (B (90 to >75%))” and the DC50 is below 1 nM.

As to `CNc1cc(N2CCc3c(CN4CCC(N5CCC6(CCN(C(=O)c7cc(N8CCC(=O)NC8=O)c(Cl)c(C)n7)CC6)CC5)C(F)(F)C4)cccc32)nn2c(C(=O)N[C@@H]3CC[C@H]3OC)cnc12` (stereo partly shown) [I-1157], the “TYK2 MSD OCI-LY10 Dmax %” value was “A (A (>90%))” and the DC50 is below 1 nM.

For `CNc1cc(N2CCc3c(CN4CCC(N5CCC6(CC5)CN(C(=O)c5cc(N7CCC(=O)NC7=O)c(Cl)cn5)C6)C(F)(F)C4)cccc32)nn2c(C(=O)N[C@@H]3CC[C@H]3OC)cnc12` (stereo partly shown) [I-1158], the “TYK2 MSD OCI-LY10 Dmax %” value was “A (A (>90%))” and the DC50 is below 1 nM.

Consider `CNc1cc(N2CCc3c(CN4CCC(N5CCC6(CCN(C(=O)c7cc(N8CCC(=O)NC8=O)c(Cl)c(C)n7)CC6)CC5)C(F)(F)C4)cc(F)cc32)nn2c(C(=O)N[C@@H]3CC[C@H]3OC)cnc12` (stereo partly shown) [I-1159], for which the “TYK2 MSD OCI-LY10 Dmax %” value is “A (A (>90%))” and the DC50 is below 1 nM.

Regarding `CNc1cc(N2CCc3c(-c4ccc(CN5CCN(C6CCN(C(=O)c7cc(C)c(Cl)c(N8CCC(=O)NC8=O)c7)CC6(F)F)CC5)cn4)cccc32)nn2c(C(=O)N[C@@H]3CC[C@H]3OC)cnc12` (stereo partly shown) [I-1161], the “TYK2 MSD OCI-LY10 Dmax %” value is reported as “B (B (90 to >75%))” and the DC50 is below 1 nM.

The values above are taken from US20260125400A1, “TYK2 DEGRADERS AND USES THEREOF” (Kymera Therapeutics, Inc., priority 2023, published 2026).
